From EP4186514A1, “PHARMACEUTICAL COMPOSITION FOR PREVENTING OR TREATING CHOLANGITIS OR LIVER DISEASE CAUSED BY CHOLANGITIS COMPRISING ADENOSINE DERIVATIVE” (Future Medicine Co., Ltd., priority 2021, dated 2023) come the findings set out here.

One data set in a line: Kinetic solubility. Format: physicochemical. The following applies: listed as compound of the formula A. The protocol: (§1) In order to test the physicochemical properties of the adenosine derivative of the inventive concept, experiments were conducted on the compound of the formula A in vitro, and the results are shown in Table 3. Plasma stability and protein binding were measured using rat and human plasma.

The subject of the next data set is BDL mouse model. In words: Efficacy in bile duct ligation (BDL) mouse model of cholangitis and liver disease. The following applies: for Hyaluronic acid values reduced: serum ELISA, compared to BDL control group (G2). Format: in vivo, C57BL/6 mice. Here is the method: After 23 C57BL/6 mice were prepared and subjected to quarantine and acclimation, a bile duct ligation (BDL) surgery and a sham surgery were performed by dividing the animals into groups.
The BDL rodent model is one of the most commonly used methods to induce obstructive cholestatic injury (Tag, C. G et al., Bile Duct Ligation in Mice: Induction of Inflammatory Liver Injury and Fibrosis by Obstructive Cholestasis, J. Vis. Exp. (96), e52438, doi: 10.3791/52438 (2015)). The BDL model induces liver fibrosis and inflammation by causing obstructive cholestasis, and since such symptoms are generally observed in patients with PBC after stage II, the corresponding model may adequately reflect an important aspect of PBC pathology. The advantages of the BDL model are technical validity, reproducibility, and the short time it takes to reach the pathogenomonic status of human portal hypertension.
The surgery day was set to day 0, and the test material was orally administered once a day for 2 weeks from day 1 to day 14. The dose was 10 mL/kg based on the body weight measured before administration. As a test material, a compound of formula A mixed with 0.5% methylcellulose (MC), which is a vehicle, was used, and only the vehicle was used in the control.
The treatment contents of each group are summarized as in the following Table 1.
Blood was collected through the abdominal vein under respiratory anesthesia on day 14, and serum was isolated. After blood collection, liver tissue was collected and weighed, half of the left lateral lobe from the tissue was placed in a tube and immersed in liquid nitrogen, and the other half was fixed in neutral formalin. • Blood biochemical analysis: aspartate aminotransferase (AST), alanine aminotransferase (ALT), alkaline phosphatase (ALP), γ-glutamyl transpeptidase (GGT) and total bilirubin (T-BIL) were measured using a serum biochemical analyzer (Accute, Toshiba). In addition, after blood collection, the body weight was measured by collecting liver tissue. • mRNA expression: RNA was extracted using a portion of the left lateral lobe removed from the liver tissue, cDNA was synthesized using an RNase inhibitor (DR22-R10k, Solgent, Korea) and DiaStar ™ RT Kit, and qRT-PCR was performed using Power SYBR Green PCR Master Mix (Applied Biosystems by Thermo Fisher Scientific, USA).
The following Table 2 lists sequences of primers of mouse Gapdh, Acta2(actin alpha 2 chain), Col1a1(proalpha1(I) chain) and tissue inhibitor of metalloproteinases-1 (Timp1) used for qRT-PCR.
• Analysis of cytokine levels: TNF-α, IL-1β and hyaluronic acid levels in serum were measured using an ELISA kit. • Analysis of hydroxyproline: a portion of the left lateral lobe of liver tissue was extracted, and the hydroxyproline value of liver lysate was measured by a microplate reader (SpectraMax ABS Plus, Molecular Devices) using a hydroxyproline assay kit (Abcam).
The experimental results are shown as mean ± SD, and the test material-administered group was compared with the vehicle control (BDL, G2). Statistical analysis was performed using one-way ANOVA followed by Fisher's least significant difference test using GraphPad Prism (version 5.01) and SPSS (version 24) software. P < 0.05 was considered statistically significant.
For orientation: ELISA stands for enzyme-linked immunosorbent assay.

Data set [1] is described as follows: Pharmacokinetic test in rats (Experimental Examples 3 and 4). Format: in vivo. The following applies: male, SD, rat, plasma, po. The protocol: In order to test the ADME properties of the adenosine derivative of the inventive concept after oral administration, pharmacokinetic properties of the compound of the formula A were measured in vivo.
Intravenous administration was performed through a tube inserted into the femoral vein, and oral administration was performed using oral gavage.
After the administration, the experimental animals' blood was taken at predetermined time intervals for 24 hours. Then, the blood was centrifuged to separate plasma. The plasma samples were pretreated with a suitable organic solvent, and then the concentration of the plasma samples was analyzed by LC-MS/MS. The blood concentration-time data of the compound of the formula A was analyzed using WinNonlin (Pharsight, USA), and graphs of the blood concentration-time data are shown in FIGS. 5 through 9. The results of noncompartmental pharmacokinetic parameters calculated from the blood concentration-time data are shown in Tables 5 through 9. In FIGS. 5 through 9, I.V. represents an intravenous administration group, P.O. represents an oral administration group, and the definition of each parameter in Tables 5 through 9 is shown in Table 10.
Thus, the adenosine derivative of the inventive concept is more suitable for oral administration than for intravenous administration.

The nature of data set [2]: Plasma stability, rat plasma. Format: in vitro ADME. Here is the method: as §1
The subject of data set [3] is rats. The following applies: rat, in vivo.
Experimental: (§2) In order to test the single-dose toxicity of the compound of the formula A, a single dose of 2,000 mg/kg of the compound of the formula A was administered to each of five male rats and five female rats.
Another data set can be described thus: PAMPA. It is filed as in vitro ADME. Here is the method:
as §1
(PAMPA measures passive passage across an artificial lipid membrane.)

The test system of a further data set is Sprague Dawley rats. In words: Toxicity after intraperitoneal injection, rats. It is filed as in vivo. The following applies: intraperitoneal 20, 10 and 1 mg/kg.
The target in another data set is T1, A1 adenosine receptor (Homo sapiens, UniProt P30542).
T1 construct: expressed in transfected cells; host or cells: CHO cells (ATCC No. CCL-61)
T1 sequence (P30542 1-326): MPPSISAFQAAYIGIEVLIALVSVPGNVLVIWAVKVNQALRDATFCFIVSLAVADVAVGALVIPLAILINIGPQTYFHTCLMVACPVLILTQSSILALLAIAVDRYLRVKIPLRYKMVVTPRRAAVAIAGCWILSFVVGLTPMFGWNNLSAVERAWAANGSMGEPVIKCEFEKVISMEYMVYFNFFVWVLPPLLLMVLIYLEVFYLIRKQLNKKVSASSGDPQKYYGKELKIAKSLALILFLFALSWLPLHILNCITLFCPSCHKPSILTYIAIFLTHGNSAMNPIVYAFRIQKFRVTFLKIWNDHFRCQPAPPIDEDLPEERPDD
In words: Radioligand binding affinity, A1 adenosine receptor ([3H]CCPA, CHO cells). Also on record: % hA1: dose or concentration left out as unconfirmed. The following applies: percentage inhibition of specific binding of [3H]CCPA.

The subject of data set [4] is rats. In words: Single-dose toxicity in rats. The conditions noted are these: summary Table 11.
Experimental: as §2
The target in a further data set is T2, A2A adenosine receptor (Homo sapiens, UniProt P29274).
T2 construct: expressed in transfected cells; host or cells: HEK 293 cell
T2 sequence (P29274 whole entry): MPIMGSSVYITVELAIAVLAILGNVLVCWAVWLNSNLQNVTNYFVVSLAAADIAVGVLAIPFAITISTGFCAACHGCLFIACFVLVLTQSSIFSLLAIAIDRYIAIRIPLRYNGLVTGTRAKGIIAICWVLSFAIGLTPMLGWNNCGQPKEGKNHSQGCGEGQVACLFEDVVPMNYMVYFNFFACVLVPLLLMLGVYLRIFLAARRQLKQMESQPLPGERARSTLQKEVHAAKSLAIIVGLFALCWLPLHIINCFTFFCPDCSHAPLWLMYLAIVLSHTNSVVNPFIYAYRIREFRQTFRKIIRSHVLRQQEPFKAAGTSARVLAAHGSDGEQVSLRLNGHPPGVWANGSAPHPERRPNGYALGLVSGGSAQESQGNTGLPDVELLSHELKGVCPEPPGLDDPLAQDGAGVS
In words: Radioligand binding affinity, A2A adenosine receptor ([3H]CGS-21680, HEK 293 cell). The conditions noted are these: percentage inhibition of specific binding of 10 µM.

The next data set is described as follows: Equilibrium solubility. It is filed as physicochemical. The following applies: listed as compound of the formula A. The protocol:
as §1

Where [5] appears, read: 10 mg/kg oral once a day (G3), serum day 14, compared with BDL control group (G2).

In general, bioavailability refers to dose-corrected exposure relative to a reference, in per cent.

A value given as a limit tells only on which side of the number the result lay.

Experimental for A1 adenosine receptor: CHO cells (ATCC No. CCL-61), in which A1 and A3 adenosine receptors were expressed, were cultured in F-12 media (Gibco, U.S.A.) supplemented with 10% fetal bovine serum (FBS) and penicillin/streptomycin (100 units/ml and 100 g/ml), at 37° C. in a 5% CO2 atmosphere. […] Incubation for 1 hr in a 37° C. incubator was followed by rapid filtration in a vacuum using a cell collector (TOMTEC, U.S.A.). Subsequently, the test tubes were washed three times with 3 ml of the buffer before radioactivity was measured using a γ-counter. […] Ki for binding affinity was determined by subtracting the non-specific binding value from the total binding value. On the basis of the specific binding values, the samples were analyzed for binding affinity to various adenosine receptors.
Experimental for A2A adenosine receptor: The adenosine derivatives of the present invention were assayed for binding affinity and selectivity for A1, A2A and A3 receptors among human adenosine receptor (hAR) as follows.
Adenosine deaminase was added alone or in combination with a radioactive ligand when cerebral meninges were incubated at 30° C. for 30 min. Each of the compounds synthesized in the examples was measured for IC50 at least 6 different concentrations, and the measurements were analyzed using SigmaPlot software to determine Ki values.
Experimental for Sprague Dawley rats: The Adenosine Derivative of the present invention were assayed for cytotoxicity in animals.

Compound `O[C@@H]1[C@H](O)CS[C@H]1n1cnc2c(NCc3cccc(Cl)c3)nc(Cl)nc21` [Example 2, (2R,3R,4S)-2-(2-chloro-6-(3-chlorobenzylamino)-9H-purin-9-yl)tetrahydrothiophen-3,4-diol] had a Kinetic solubility in the data set “Kinetic solubility” of 148.8 µg/mL. Besides, the “content of liver hydroxyproline decreased” value in the data set with BDL mouse model (10 mg/kg (G3), liver lysate) amounted to 39%. Further, the “Hyaluronic acid values reduced” value in the data set with BDL mouse model (10 mg/kg (G3)) turned out to be 51%. In the data set with BDL mouse model (setting [5]), this compound returned an AAR decreased of 21%, an ALT decreased of 37% and an AST decreased of 48%. Besides, in the data set with BDL mouse model (30 mg/kg (G4)), the “Hyaluronic acid values reduced” value came out at 47%. The same compound displayed an AST decreased with BDL mouse model (30 mg/kg oral once a day (G4), serum day 14, compared with BDL control group (G2)) of 38%. Further, in the data set on BDL mouse model (liver tissue, qRT-PCR, BDL groups G3 (10 mg/kg) and G4 (30 mg/kg)), the “Acta2 mRNA levels” value is “decreased”. Further, the bioavailability in [1] (read-out: bioavailability Ft) is not below 99.9%. For the same compound, in data set [1] (read-out: half-life T1/2), the half-life was not below 3.34 h. In [2], this compound showed a Plasma stability of more than 99.9. In the data set on rats [3], the “death after single dose” value is “no animals died”. The compound also showed a PAMPA in the data set “PAMPA” of -4.49. Besides, in the data set with Sprague Dawley rats, the “weight gain or feed intake versus control group” value was “No difference”. Also, the death result with Sprague Dawley rats (observation for 24 hrs) is given as “No death was observed”. The “% hA1” value on A1 adenosine receptor is reported as 37.9%. For the same compound, in the data set on rats [4], the “Toxicity, Single-dose toxicity evaluation” value is “Not detected”. The “% hA2A” value at A2A adenosine receptor was 17.7%. This compound also had an Equilibrium solubility in “Equilibrium solubility” of 2.76 µg/mL.
